Measured values: patent US7109329B2, “Neurologically active compounds and compounds with multiple activities” (priority 1988, dated 2006)

Legend:
[1] = Treatment of spinal cord injured rats and cats with alpha-adrenoceptor agonists; assay type: in vivo
Description: The animals are treated with a guanidino compound, e.g., guanphylline or aminoguanphylline, twice daily (1 mg/kg). Approximately 10, 14 and 20 days after treatment with, e.g., guanphylline or aminoguanphylline is commenced, these animals can also be treated with a serotonergic (“5-HT”) receptor agonist; such as quipazine (1–2 mg/kg). Such serotonergic compounds can accelerate the recovery period, i.e., shorten the period after which time the animals become mobile. The animals should then continue to be treated systemically with the guanidino compound twice daily for six to eight weeks, or until functional recovery has been achieved.
Many rats and cats have been treated with several alpha-adrenoceptor agonists in order to ascertain which drug has the least side effects and reduces the time period for recovery.

[2] = Brain and core temperature of treated rats in a room at 4°–5°; assay type: in vivo, Sprague-Dawley rats; conditions: 12 mg/kg IP
Description: All sixteen rats were placed in a temperature-controlled room maintained at 4°–5° d. immediately after injection.

[3] = Anesthesia in rats judged by reflexes and wakefulness
[4] = Electrical tail stimulation, vocalization threshold (anesthesia) in rats; assay type: in vivo, rat
Description: A fifth rat was treated with merely an equal amount of the dextrose solution without guanabenz acetate. The rats were subjected to an electrical tail stimulation, by electrodes attached to their tails, to determine the point of positive (threshold) vocalization.
The normal vocalization threshold, and the point at which the control rat vocalized was approximately 7 volts. […] To bring the rats out of anesthesia, the rats were then injected with 40 mgs. of aminophylline, also in 1 ml of a 5% aqueous dextrose solution. […] The normal threshold for vocalization was reestablished, as there was no vocalization at 6 volts following recovery from anesthesia.
The rats were maintained under anaesthesia for a period of 50 minutes before injection of the aminophylline.

[5] = Intravenous anesthesia of a 70 kg mammal; assay type: in vivo
Description: Thereafter, an intravenous injection containing 20 mg of aminophylline is administered over a period of five minutes. The large mammal is fully awakened within about 20 minutes, appearing alert and refreshed.
The period of time required to fully reverse the anesthesia can be increased or decreased by proportionally changing the amount of the antagonist. After metabolism of guanabenz, the mammal will spontaneously awaken, within about three to six hours after the I.V. drip is discontinued.

[6] = Spinal cord trauma (500 g-cm weight drop at T4) in cats: urinary bladder function, micturition; assay type: in vivo, cat
Description: A cat was anesthetized using intravenous pentobarbital (30 mg/kg) after which its arterial blood pressure was continuously monitored for at least two hours. After recording stable arterial blood pressure, a dorsal laminectomy was performed in the thoracic region of the cat from T3 to T5; after restoration of blood pressure, the cat was traumatized by means of a twenty gram weight being dropped from a height of twenty-five centimeters (500 g-cm force) on the exposed dura of the spinal cord at the fourth thoracic segment.
Ten cats were spinally traumatized in accordance with the procedure set forth above in Comparative Example A. Five of these spinal cats were treated with Compound C commencing three hours after trauma and five of the cats were treated with guanabenz beginning at the same time.
Spinalized cats required eight weeks of treatment with guanabenz before regaining controlled micturition. Cats treated with Compound C, required only three to five weeks of treatment to achieve the same results.

[7] = Description: Room temperature was 21.5° C.
The core temperatures of the rats were allowed to fall to approximately 30° C., after about 15 minutes. At that time, the rats were placed in a temperature controlled room maintained at 42° C., together with 2 control rats treated only with the dextrose solution.
The core temperatures of the rats were allowed to fall to approximately 30° C. At that time, the rats were placed in a temperature controlled room maintained at 42° C., together with two control rats treated only with the dextrose solution.

[8] = Spinal cord transection in rats: recovery of hind limb function and reflexes under treatment; assay type: in vivo, rat
Description: The spinal cord of a group of rats was completely transected. After surgery, the rats were treated with guanabenz.
The rats presented with a condition of bloody eyes and nose for a period of 2 to 5 days after the transection. During the first two-weeks, proper plantar placement, weight bearing on the hind limbs and/or coordinated walking was not present.
In a further group of six rats the spinal cord was transected in accordance with the above Comparative Examples. After surgery and cleaning and mechanical treatment of the wounds in the same fashion, an intraperitoneal injection of 7-(guanidino-acetyl-theophylline (“C”) was administered at a dose of 5.0 mg/kg 24 hours post surgery. Within a 7 to 9 day period, the rats engaged in walking movements of the hind limbs coordinated with those of the front limbs and the hind limbs, including proper plantar placement and full weight bearing on the hind limbs.
Within 36 hours after the spinal cord transection, i.e., only 12 hours after initial administration of Compound C, the initial bloody eyes and nose condition had abated. […] Further the animals were alert and continued to eat in substantially normal quantities.
Starting 24 hours post-transection, immediately after each intraperitoneal administration of Compound C, reflexes such as the tail-flick and cross-extension would return, within 12 minutes post injection. […] Within 8 to 11 days the response became sustained, and was accompanied by long-term therapeutic restoration of coordinated movements, plantar placements and weight-bearing by the hind limbs.

[9] = Formation of scar tissue at the trauma site; assay type: in vivo
From the text: It is believed that these mixed agonists interfere with triple helix formation in the synthesis of collagen protein, thus preventing or reducing the formation of hard scar tissue at the trauma site.
The purpose of liquid nitrogen is to reduce the structural integrity of the collagen laden, glial scar tissue, by freezing and defrosting. Collagenase then initiates a debridgement of the scar without attacking the nervous and osseous tissue. If required, streptokinase, or alteplase, both plasminogen activators can also be used to bring about a complete debridgement. In addition to 3-amino-propionitrile (a latherogen), 5-fluorodeoxyuridine and dehydroproline can be used to arrest further glial and fibroblastic invasion of the scar region, respectively.

[10] = Core temperature of treated rats in a room at minus 30° C.; assay type: in vivo, rat; conditions: four rats, 4 mg intraperitoneally, placed about 30 minutes after injection
Description: (room temperature). […] (plus or minus 0.5° C.). The core temperatures of the four treated rats, as well as that of two control rats who received only the dextrose solution, were continuously monitored.

[11] = 4 mg I.P., room temperature 21.5° C.
[12] = Sprague-Dawley rats, 4 mg, tolazoline 4 mg intravenously about twenty minutes before

## Cn1c(=O)c2c(ncn2C(=O)CNC(=N)N)n(C)c1=O [7-(guanidinoacetyl)-theophylline]
[1]
  efficacy in treated rats and cats: found efficacious

## N=C(N)N/N=C/c1c(Cl)cccc1Cl [guanabenz]
[2]
  behavior after the experiment: resume normal behavior
[2]; ultimately
  core temperature lower than the brain temperature by: 10 °C
[2]; 8 rats, original mean 37° C.
  mean brain temperature after 45 minutes: 27 °C
[3]; [11]
  anesthetic state of the treated rats: anesthetized
[3]; laboratory rats, I.P.
  I.P. amount sufficient to initially place the rats in an anesthetized condition: 12 mg per kilogram of body weight
[4]; [12]
  duration of anesthesia without further administration: four
  time until anesthetized: five
[4]; rats 310–350 g, 4 mg intraperitoneally, beginning seven minutes after injection, normal threshold 7 volts
  vocalization threshold on electrical tail stimulation (failed to vocalize): > 10 volts
[4]; rats, 4 mg intraperitoneally, thereafter (profoundly anesthetized)
  vocalization threshold on electrical tail stimulation (no vocalization response): > 40 Volts
[5]; 60 to 75 kg mammal, intravenous injection
  total amount in the initial single dose for anesthetic and hypothermic effect: ≤ 0.5 mg/kg
[5]; 70 kg mammal, 6 mg intravenous
  reaction to noxious stimulation and corneal reflex: does not overtly react to the noxious stimulation of pin-pricks
[5]; 70 kg mammal, 6 mg intravenous over three minutes
  time after injection until profound anesthesia: five
[5]; 70 kg mammal, drip 0.1 mg/ml at 1 ml/min for 30 minutes from about 120 minutes after the initial injection
  additional duration of profound anesthesia after the drip: about two
[5]; large mammal, after metabolism of guanabenz
  time to spontaneous awakening after the I.V. drip is discontinued: three to six
[6]; spinal cats, 0.65 mg/kg bid from three hours after trauma, guanabenz four to five weeks after treatment began, Compound C after seven to twenty-one days
  urinary bladder function at urodynamic examination: tight urinary sphincter and dyssinergia
[6]; spinalized cats
  treatment required before regaining controlled micturition: eight
[7]; [11]
  mean intraperitoneal temperature: 31.5 °C
  temperatures of the liver and the kidneys: about 33.5 °C
[7]; eight rats each, 4 mg I.P. in 5% dextrose, room temperature 21.5° C., normal value 36.5° C.
  core temperature (colonic measurement) after drop: 22.5 °C
[7]; four rats, 4 mg intraperitoneally, room temperature 21° C., before cold room
  core temperature after drop: 21 °C
[8]; spinal transected rats under I.P. treatment
  muscle mass of hind limbs: some, but not significant loss of muscle mass
[8]; spinal transected rats, 0.65 mg/kg I.P. twice per day from 72 hours after the lesion
  duration of sedation following each administration: 2 to 4 h
[8]; spinal transected rats, 0.65 mg/kg I.P. twice per day, majority of the rats
  time of treatment until proper plantar placement, weight bearing on the hind limbs and coordinated walking movements: third week
[9]
  effect on formation of the scar: interfere with formation of the scar
[10]
  core temperature approximately 15 minutes after placement in the cold room: ~16 °C
